Experiments:
[1] = molecular target: T1, 6-phosphofructo-2-kinase/fructose-2,6-bisphosphatase 3 (Homo sapiens, UniProt Q16875); experiment: Inhibition of iPFK2 (unknown origin) assessed as reduction in enzyme-mediated fructose-6-phosphate phosphorylation by measuring ATP consumption incubated for 3 hrs by luciferase-luciferin-coupled chemiluminescence assay
[2] = molecular target: T1, 6-phosphofructo-2-kinase/fructose-2,6-bisphosphatase 3; experiment: Inhibition of iPFK2 (unknown origin) assessed as reduction in enzyme-mediated fructose-6-phosphate phosphorylation by measuring NADH absorbance pre-incubated for 10 mins before ATP/substrate addition followed by incubation for 1 hr by UV-Visible spectrometry based iPFK-2/PPI-PFK coupled enzyme assay

T1 sequence (Q16875 whole entry): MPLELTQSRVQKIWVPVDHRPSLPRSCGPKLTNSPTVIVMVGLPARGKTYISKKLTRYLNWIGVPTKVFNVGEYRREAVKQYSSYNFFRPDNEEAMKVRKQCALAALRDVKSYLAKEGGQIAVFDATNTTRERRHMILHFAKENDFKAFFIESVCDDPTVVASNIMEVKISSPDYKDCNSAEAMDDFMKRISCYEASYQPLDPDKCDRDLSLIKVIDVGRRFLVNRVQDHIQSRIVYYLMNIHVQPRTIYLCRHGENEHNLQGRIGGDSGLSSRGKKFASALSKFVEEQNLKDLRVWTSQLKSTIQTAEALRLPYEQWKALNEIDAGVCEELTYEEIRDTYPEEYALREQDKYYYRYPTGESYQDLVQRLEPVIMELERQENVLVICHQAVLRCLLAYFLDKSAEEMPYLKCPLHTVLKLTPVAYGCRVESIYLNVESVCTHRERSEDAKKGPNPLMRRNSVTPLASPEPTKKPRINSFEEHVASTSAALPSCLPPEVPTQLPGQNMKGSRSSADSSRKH

| Structure (SMILES) | IC50 [1] [nM] | IC50 [2] [nM] |
| --- | --- | --- |
| Cc1nc(NC(C)c2cccc(-c3cnn(C)c3)c2)cc(-c2ccc(C(C)C)cc2)n1 (configuration not stated) | > 1000 | 500 |
| Cc1nc(NC(C)c2cccc(OCC(=O)C3CC3)c2)cc(-c2ccc3ncsc3c2)n1 (configuration not stated) | > 1000 | > 1000 |
| Cc1nc(NCc2ccccc2F)cc(-c2ccc3ncsc3c2)n1 | 500 | > 1000 |
| Cc1nc(NC(C)c2cccc(OCC#N)c2)cc(-c2ccc3ccn(C)c3c2)n1 (configuration not stated) | 500 | 500 |
| COC(=O)COc1cccc(C(C)Nc2cc(-c3ccc4ncsc4c3)nc(C)n2)c1 (configuration not stated) | > 1000 | > 1000 |
| Cc1nc(NC(C)c2cccc(-c3cnn(C)c3)c2)cc(-c2ccc(Cl)cc2Cl)n1 (configuration not stated) | 500 | 500 |
| Cc1nc(NC(C)c2cccc(-c3c(C)noc3C)c2)cc(-c2ccc3ncsc3c2)n1 (configuration not stated) | > 1000 | 500 |
| Cc1cc(COc2ccc(F)c(CNc3cc(-c4ccc5ncsc5c4)nc(C)n3)c2)n(C)n1 | > 1000 | > 1000 |
| Cc1nc(N[C@H](C)c2cccc(O)c2)cc(-c2ccc3ncsc3c2)n1 | > 1000 | > 1000 |
| Cc1nc(NC(C)c2cccc(OCc3cc(C)on3)c2)cc(-c2ccc3ncsc3c2)n1 (configuration not stated) | 500 | 500 |
| Cc1nc(NC(C)c2cccc(S(=O)(=O)NCCO)c2)cc(-c2ccc3ncsc3c2)n1 (configuration not stated) | 500 | > 1000 |
| Cc1nc(NCC2CCCN(C(=O)C3(C)CC3)C2)cc(-c2ccc3ncsc3c2)n1 (configuration not stated) | 500 | > 1000 |
| Cc1nc(NC(C)c2cccc(OCC3CCN(C(=O)OC(C)(C)C)CC3)c2)cc(-c2ccc3ncsc3c2)n1 (configuration not stated) | > 1000 | > 1000 |

Second part, the compound after the results:

| IC50 [1] [nM] | IC50 [2] [nM] | Structure (SMILES) |
| --- | --- | --- |
| > 1000 | 500 | COc1cccc(-c2cc(N[C@@H]3CCCc4ccccc43)nc(C)n2)c1F |
| > 1000 | > 1000 | Cc1nc(NC(C)c2cccc(OCC3CCCN(C(=O)OC(C)(C)C)C3)c2)cc(-c2ccc3ncsc3c2)n1 (configuration not stated) |
| 500 | 500 | Cc1nc(NC(C)c2cccc([N+](=O)[O-])c2)cc(-c2ccc3ncsc3c2)n1 (configuration not stated) |
| 500 | > 1000 | COc1ccc(F)c(CNc2cc(-c3ccc4ncsc4c3)nc(C)n2)c1 |
| > 1000 | 500 | Cc1nc(NC(C)c2cccc(N)c2)cc(-c2ccc3ncsc3c2)n1 (configuration not stated) |
| 500 | 500 | Cc1nc(N[C@@H]2CCCc3ccccc32)cc(-c2ccc(C)c(O)c2)n1 |
| > 1000 | > 1000 | Cc1nc(NC(C)c2cccc(NS(=O)(=O)c3cn(C)cn3)c2)cc(-c2ccc3ncsc3c2)n1 (configuration not stated) |
| > 1000 | > 1000 | Cc1ccc(OCc2noc(COc3cccc(C(C)Nc4cc(-c5ccc6ncsc6c5)nc(C)n4)c3)n2)cc1 (configuration not stated) |
| 500 | > 1000 | COc1cccc(-c2cc(NC(C)c3cccc(-c4cnn(C)c4)c3)nc(C)n2)c1F (configuration not stated) |
| > 1000 | 500 | Cc1nc(NC(C)c2cccc(NC(=O)c3ccn(C)n3)c2)cc(-c2ccc3ncsc3c2)n1 (configuration not stated) |
| > 1000 | 500 | Cc1nc(N[C@H](C)c2ccc(F)c(-c3cnn(C)c3)c2)cc(-c2ccc3occ(C)c3c2)n1 |
| > 1000 | > 1000 | Cc1nc(NCc2cc(Br)ccc2F)cc(-c2ccc3ncsc3c2)n1 |
| 500 | > 1000 | Cc1nc(N[C@H](C)c2cccc(-n3cnnn3)c2)cc(-c2ccc3occ(C)c3c2)n1 |
| > 1000 | > 1000 | Cc1ccc(COc2cccc(C(C)Nc3cc(-c4ccc5ncsc5c4)nc(C)n3)c2)cc1 (configuration not stated) |
| > 1000 | > 1000 | Cc1nc(N[C@@H]2CCCc3ccccc32)cc(-c2ccc(C#N)cc2)n1 |
| > 1000 | 500 | COc1cc(-c2cc(NC(C)c3cccc(O)c3)nc(C)n2)ccc1C (configuration not stated) |
| > 1000 | 500 | Cc1nc(NC(C)c2cccc(OCC(F)(F)F)c2)cc(-c2ccc3ncsc3c2)n1 (configuration not stated) |
| 500 | > 1000 | Cc1nc(NCC2CCCN(C(=O)C3CCCC3)C2)cc(-c2ccc3ncsc3c2)n1 (configuration not stated) |

From ChEMBL document CHEMBL3727358, “Inhibitors of inducible form of 6-phosphofructose-2-kinase” (2014)
